Assay results from patent US3984562A, “Substituted benzodiazepines and method of use” (American Cyanamid Company, priority 1975, dated 1976).
Read-outs that look alike come from different tables or passages of the source.

Test: protection from convulsions resulting from the administration of pentylenetetrazole (anti-anxiety test, rats, oral)
Format: in vivo
Conditions: Rattus norvegicus, read-out: Median Effective Oral Dose ED50
Description: The anti-anxiety properties of these compounds have been established in a test which indicates anxiolytic activity by a measure of protection from convulsions resulting from the administration of pentylenetetrazole. Graded dose levels of the compounds are administered orally, in a 2% starch vehicle, to groups of at least 5 rats. At the estimated time of peak effect, the rats are treated intravenously with pentylenetetrazole at a dose of 21 to 23 mg./kg. of body weight. This dose is estimated to cause clonic seizures in 99% of unprotected rats. The effective dose of the test compound for protection of 50% of the animals (ED50) is calculated by the method of D. H. Finney in Statistical Methods in Biological Assay, Second Edition, Hafner Publishing Co., New York, 1964, pp. 456-457. The results of this test on representative compounds of the present invention are given in the following table in comparison with meprobromate which is tested in the same manner. It has been reported [R. T. Hill and D. H. Tedeschi, "Animal Testing and Screening Procedures in Evaluating Psychotropic Drugs" in An Introduction to Psychopharmacology, Eds. R. R. Rech and K. E. Moore, Raven Press, New York, pp. 237-288 (1971)] that there is a high degree of correlation between antagonism of pentylenetetrazole seizures in rats and anti-anxiety effects in higher warm-blooded animals.

[1] = oral, 2% starch vehicle, rats (at least 5 per group), pentylenetetrazole 21 to 23 mg./kg. intravenously at estimated time of peak effect, protection of 50% of animals

Row | Compound | ED50 [1] | ED50 (po)
1 | O=C(CCN1CCCCC1)N1CC2CCCN2Cc2ccccc21 (single isomer, unassigned; (-)) [(-)-2,3,5,10,11,11a-Hexahydro-10-(3-piperidinopropionyl)-1H-pyrrolo[2,1-c][1,4]benzodiazepine] | 16 mg/kg | –
2 | O=C(CCN1CCCC1)N1CC2CCCN2Cc2cc(Cl)ccc21 (single isomer, unassigned; (-)) [(-)-7-Chloro-2,3,5,10,11,11a-hexahydro-10-[3-(1-pyrrolidinyl)-propionyl]-1H-pyrrolo[2,1-c][1,4]benzodiazepine] | 7 mg/kg | –
3 | O=C(CCN1CCCC1)N1CC2CCCN2Cc2ccccc21 (single isomer, unassigned; (-)) [(-)-2,3,5,10,11,11a-Hexahydro-10-[3-(1-pyrrolidinyl)-propionyl]-1H-pyrrolo[2,1-c] [1,4]benzodiazepine] | 57 mg/kg | –
4 | CCCC(C)(COC(N)=O)COC(N)=O [meprobromate, reference compound] | – | 22 mg/kg
